Results as given in patent publication US6040337A, “5-demethoxyfumagillol derivatives and processes for preparing the same” (priority 1998, dated 2000).
Values after ≈ are worked out from the molar mass of the structure shown. Read-outs that look alike come from different tables or passages of the source.

Columns and labels:
[1] = system: CPAE (Calf Pulmonary Artery Endothelial) cells; assay: Inhibiting activity on angiogenesis (in vitro), CPAE cells, SRB method; type: cell-based; conditions: Bos taurus, Endothelial cell, 96 h, read-out: IC50, CPAE
Method: (§1) Examination of the Inhibiting Activity on Angiogenesis (In Vitro)
(§2) The compound sample dissolved in DMSO was diluted to ten times by using MEM culture medium (in case of CPAE cells) without adding FBS (Fetal Bovine Serum) and RPMI 1640 culture (in case of EL-4 and P388D1 cells), and 20 of the solution was poured to each well of 96 well plate in triplicate for every concentration gradient. Then, each cell suspension was prepared and poured to examine the inhibiting activity on angiogenesis.
In case of CPAE (Calf Pulmonary Artery Endothelial) cells (used after 2-3 subcultures), a cell suspension having 7×10^3 cells/ml was prepared with MEM (+10% FBS+50 μg/ml ECGS) medium, and after pouring the suspension (180 μl) to each well of 96 well plate, they were cultured in a CO2 incubator (5% CO2, humidified) for 4 days.

[2] = system: EL-4 (Lymphoma, murine) cells; assay: Inhibiting activity on angiogenesis (in vitro), EL-4 cells, MTT method; type: cell-based; conditions: Mus musculus, EL4, 72 h, read-out: IC50, EL-4
Method: as §1, §2
In case of EL-4 (Lymphoma, murine) and P388D1 (leukemia, mouse) cells, a cell suspension having 1×10^4 cells/ml was prepared with RPMI1640 (+10% FBS) culture medium, and after pouring the suspension (180 μl) to each well of 96 well plate, they were cultured in a CO2 incubator (5% CO2, humidified) for 3 days.

[3] = CPAE cells, 4 days culture, SRB method
[4] = EL-4 cells, 3 days culture, MTT method

Structure (SMILES) | IC50 [2, 4] [ng/mL] | IC50 [1, 3] [ng/mL] | IC50 [1] [ng/mL] | IC50 [2] [ng/mL]
CC(C)=CC[C@H]1O[C@]1(C)[C@H]1CC(=O)CC[C@]1(O)CCl [Example 4, 3-Chloromethyl-5-demethoxy-3-hydroxy-6-oxo-6-deoxyfumagillol] | 0.46 (≈ 1.6 nM) | 0.57 (≈ 1.99 nM) |  | 
CC(C)=CC[C@H]1O[C@]1(C)[C@H]1C[C@H](OC(=O)NC(=O)CCl)CC[C@]12CO2 [Example 5, 5-Demethoxy-6-O-chloroacetylcarbamoylfumagillol] |  |  | 0.28 (≈ 0.753 nM) | 0.52 (≈ 1.4 nM)
CC(C)=CC[C@H]1O[C@]1(C)[C@H]1C[C@H](OC(=O)OCc2ccccc2)CC[C@]12CO2 [Example 11, O-benzyloxycarbonyl-5-demethoxyfumagillol] | 0.041 (≈ 0.106 nM) |  | 0.012 (≈ 0.031 nM) | 
CC(C)=CC[C@H]1O[C@]1(C)[C@H]1C[C@H](OC(=O)/C=C/C=C/C=C/C=C/C(=O)O)CC[C@]12CO2 [5-Demethoxy fumagillin, 5-demethoxyfumagillin, reference compound] | 21 (≈ 49 nM) | 28 (≈ 65.3 nM) |  | 
COc1cc(/C=C/C(=O)O[C@@H]2CC[C@]3(CO3)[C@@H]([C@@]3(C)O[C@@H]3CC=C(C)C)C2)cc(OC)c1OC [Example 7, 5-Demethoxy-6-O-(3,4,5-trimethoxy)cinnamoyl fumagillol] | 0.066 (≈ 0.14 nM) | 0.042 (≈ 0.0889 nM) |  | 
CO[C@@H]1[C@H](OC(=O)/C=C/C=C/C=C/C=C/C(=O)O)CC[C@]2(CO2)[C@H]1[C@@]1(C)O[C@@H]1CC=C(C)C [Fumagillin, reference compound] |  |  | 3.2 (≈ 6.98 nM) | 1.6 (≈ 3.49 nM)

Further lines, with some results ahead:

IC50 [2, 4] [ng/mL] | Structure (SMILES) | IC50 [1, 3] [ng/mL] | IC50 [1] [ng/mL] | IC50 [2] [ng/mL]
0.82 (≈ 1.98 nM) | COc1ccc(CCC(=O)O[C@@H]2CC[C@]3(CO3)[C@@H]([C@@]3(C)O[C@@H]3CC=C(C)C)C2)cc1 [Example 10, 5-Demethoxy-6-O-[3-(4-methoxyphenyl)propionyl] fumagillol] | 0.46 (≈ 1.11 nM) |  | 
0.032 | CC(C)=CC[C@H]1O[C@]1(C)[C@H]1CC(=O)CC[C@]1(O)C[S+](C)C [Example 20, 2-(1,2-Epoxy-1,5-dimethyl-4-hexenyl)-1-dimethylsulfoniomethyl-4-oxo-1-cyclohexanol iodide] | 0.012 |  | 
0.41 (≈ 0.966 nM) | CC(C)=CC[C@H]1O[C@]1(C)[C@H]1CC(NC(=O)/C=C/c2ccc(N(C)C)cc2)CC[C@]12CO2 (stereo partly shown) [Example 14, 6-(4-Dimethylaminocinnamoyl)amino-5-demethoxy-6-deoxyfumagillol] | 0.19 (≈ 0.447 nM) |  | 
0.26 (≈ 0.624 nM) | CC(C)=CC[C@H]1O[C@]1(C)[C@H]1C[C@H](OC(=O)/C=C/c2ccc(Cl)cc2)CC[C@]12CO2 [Example 8, 5-Demethoxy-6-O-(4-chlorocinnamoyl)fumagillol] | 0.32 (≈ 0.767 nM) |  | 
0.43 (≈ 1.05 nM) | CC(C)=CC[C@H]1O[C@]1(C)[C@H]1C[C@H](OC(=O)NC(=O)CCl)CC[C@]1(O)CCl [Example 9, 4-O-chloroacetylcarbamoyl-l-chloromethyl-l-cyclohexanol] | 0.36 (≈ 0.882 nM) |  | 
